In US20230203081A1, “LINCOSAMIDE ANTIBIOTICS AND USES THEREOF” (President and Fellows of Harvard College, priority 2020, published 2023):
≈ marks a conversion by molar mass, not a printed value.

Experiments:
E. coli ΔTolC = test: microbe, parasite or virus in culture; assay type: cell-based; conditions: Escherichia coli, E. coli ΔTolC
In short: (§1)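 Inoculum for broth microdilution was 5×10^5 CFU/mL final, prepared from overnight 35° C blood-agar subcultures (separate handling for streptococcal and anaerobic strains); MICs read by CLSI broth microdilution or agar dilution.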

[1] = test system: broad panel of different clinical isolates; test: microbe, parasite or virus in culture; assay type: cell-based
In short: as §1

For `CCC[C@@H]1C[C@@H](C(=O)N[C@@H]([C@H]2O[C@H](SC)[C@H](O)[C@@H](O)[C@H]2O)[C@H](C)Cl)N(C)C1` [Clindamycin, clindamycin, reference compound], the MIC (E. coli ΔTolC) was 4 µg/mL (≈ 9.41 µM), the MIC ([1]; Acinetobacter baumannii, A. baumannii HAV#651, Clinical) was 128 µg/mL (≈ 301 µM) and the MIC ([1]; Acinetobacter baumannii, A. baumannii HAV#652 Clinical) was 128 µg/mL (≈ 301 µM). It also gave an MIC ([1]; Acinetobacter baumannii, A. baumannii HAV#653, Clinical) of 64 µg/mL (≈ 151 µM), an MIC ([1]; Acinetobacter baumannii, A. baumannii HAV#654, Clinical) of 64 µg/mL (≈ 151 µM) and an MIC ([1]; Acinetobacter baumannii, A. baumannii HAV#655, Clinical) of 128 µg/mL (≈ 301 µM). It also gave an MIC ([1]; Acinetobacter baumannii, A. baumannii HAV#656, Clinical) of 128 µg/mL (≈ 301 µM), an MIC ([1]; Acinetobacter baumannii, A. baumannii HAV#657, Clinical) of 128 µg/mL (≈ 301 µM) and an MIC ([1]; Acinetobacter baumannii, A. baumannii HAV#658, Clinical) of 64 µg/mL (≈ 151 µM). It also gave an MIC ([1]; Acinetobacter baumannii, A. baumannii HAV#659, Clinical) of 128 µg/mL (≈ 301 µM), an MIC ([1]; Acinetobacter baumannii, A. baumannii HAV#660, Clinical) greater than 128 µg/mL and an MIC ([1]; Acinetobacter baumannii, A. baumannii HAV#661, Clinical) of 64 µg/mL (≈ 151 µM). For the same compound, the MIC ([1]; Acinetobacter baumannii, A. baumannii HAV#662, Clinical) was 64 µg/mL (≈ 151 µM), the MIC ([1]; Acinetobacter baumannii, A. baumannii HAV#663, Clinical) was 32 µg/mL (≈ 75.3 µM) and the MIC ([1]; Acinetobacter baumannii, A. baumannii HAV#664, Carbapenem R) was 128 µg/mL (≈ 301 µM). For the same compound, the MIC ([1]; Enterococcus faecalis, E. faecalis HAV#602, Clincal) was 16 µg/mL (≈ 37.6 µM), the MIC ([1]; Enterococcus faecalis, E. faecalis HAV#611, Line R & Vanco R) was 128 µg/mL (≈ 301 µM) and the MIC ([1]; Enterococcus faecalis, E. faecalis HAV#612, Line R) was 8 µg/mL (≈ 18.8 µM). It also gave an MIC ([1]; Enterococcus faecalis, S. faecalis 5060, Line R & Vanco R) of 128 µg/mL (≈ 301 µM), an MIC ([1]; Enterococcus faecalis, S. faecalis 5074, Line R) of 8 µg/mL (≈ 18.8 µM) and an MIC ([1]; Enterococcus faecalis, VRE, E. faecalis HAV#251, Clinical VRE) greater than 128 µg/mL. The MIC ([1]; Enterococcus faecium, E. faecium HAV#317, Clinical) was 8 µg/mL (≈ 18.8 µM), the MIC ([1]; Enterococcus faecium, E. faecium HAV#327, Clinical) was 8 µg/mL (≈ 18.8 µM) and the MIC ([1]; Enterococcus faecium, E. faecium HAV#604, Clinical) was 8 µg/mL (≈ 18.8 µM). The MIC ([1]; Enterococcus faecium, VRE, E. faecium HAV#318, VanA) was greater than 128 µg/mL, the MIC ([1]; Enterococcus faecium, VRE, E. faecium HAV#320, Clinical) was greater than 128 µg/mL and the MIC ([1]; Enterococcus faecium, VRE, E. faecium HAV#326, Clinical) was 8 µg/mL (≈ 18.8 µM). For the same compound, the MIC ([1]; Escherichia coli, E. coli HAV#501, Clinical) was greater than 128 µg/mL, the MIC ([1]; Escherichia coli, E. coli HAV#503, Clinical) was 64 µg/mL (≈ 151 µM) and the MIC ([1]; Escherichia coli, E. coli HAV#511, Clinical) was 128 µg/mL (≈ 301 µM). It also gave an MIC ([1]; Escherichia coli, E. coli HAV#512, Clinical) greater than 128 µg/mL, an MIC ([1]; Escherichia coli, E. coli HAV#513, Clinical) greater than 128 µg/mL and an MIC ([1]; Escherichia coli, E. coli HAV#514, Clinical) of 128 µg/mL (≈ 301 µM). The MIC ([1]; Escherichia coli, E. coli HAV#516, ESBL-producing) was 128 µg/mL (≈ 301 µM), the MIC ([1]; Haemophilus influenzae, ATCC9007, H. influenzae HAV#376, ATCC-9007) was 8 µg/mL (≈ 18.8 µM) and the MIC ([1]; Klebsiella pneumoniae, K. pneumoniae HAV#402, FQ-R) was greater than 128 µg/mL. It also gave an MIC ([1]; Klebsiella pneumoniae, K. pneumoniae HAV#404, Clinical) of 128 µg/mL (≈ 301 µM), an MIC ([1]; Klebsiella pneumoniae, K. pneumoniae HAV#405, Clinical) greater than 128 µg/mL and an MIC ([1]; Klebsiella pneumoniae, K. pneumoniae HAV#406, Clinical) greater than 128 µg/mL. The MIC ([1]; Klebsiella pneumoniae, K. pneumoniae HAV#407, Clinical) was greater than 128 µg/mL, the MIC ([1]; Klebsiella pneumoniae, K. pneumoniae HAV#408, Clinical) was greater than 128 µg/mL and the MIC ([1]; Klebsiella pneumoniae, K. pneumoniae HAV#409, ESBL-producing) was greater than 128 µg/mL. The MIC ([1]; Neisseria gonorrhoeae, N. gonorrhoeae HAV#701, Clinical) was 2 µg/mL (≈ 4.71 µM), the MIC ([1]; Neisseria gonorrhoeae, N. gonorrhoeae HAV#702, Clinical) was 0.5 µg/mL (≈ 1.18 µM) and the MIC ([1]; Staphylococcus aureus, MRSA, S. aureus HAV#220, Line R) was greater than 128 µg/mL. For the same compound, the MIC ([1]; Staphylococcus aureus, MSSA, S. aureus HAV#219, Line R) was greater than 128 µg/mL, the MIC ([1]; Staphylococcus aureus, S. aureus HAV#051, mecA, norA, spcl, ermA, aad1, aac6′-aph2″) was 0.06 µg/mL (≈ 0.141 µM) and the MIC ([1]; Staphylococcus aureus, S. aureus HAV#052, mecA, norA, fosB, blaZ) was 0.06 µg/mL (≈ 0.141 µM). The MIC ([1]; Staphylococcus aureus, S. aureus HAV#053 mecA, norA, fosB) was 0.06 µg/mL (≈ 0.141 µM) and the MIC ([1]; Staphylococcus aureus, S. aureus HAV#211, Clinical) was greater than 64 µg/mL.
